The values below come from article PMC6733907, “Structural basis for activation of a diguanylate cyclase required for bacterial predation in Bdellovibrio” (Nature Communications, 2019).

Where “and” joins values, the source holds several entries; their conditions need not be identical. Equal entries are not always repeated.

One assay concerns the target T1, DgcB (full-length) (Bdellovibrio bacteriovorus, UniProt Q6MPU8).
T1 construct: gene Bd0742; full-length aa 1-310 (own numbering), C-terminal thrombin-cleavable 8xHis tag, E. coli BL21 lambda DE3; dimer with c-di-GMP
T1 sequence (Q6MPU8 11-320): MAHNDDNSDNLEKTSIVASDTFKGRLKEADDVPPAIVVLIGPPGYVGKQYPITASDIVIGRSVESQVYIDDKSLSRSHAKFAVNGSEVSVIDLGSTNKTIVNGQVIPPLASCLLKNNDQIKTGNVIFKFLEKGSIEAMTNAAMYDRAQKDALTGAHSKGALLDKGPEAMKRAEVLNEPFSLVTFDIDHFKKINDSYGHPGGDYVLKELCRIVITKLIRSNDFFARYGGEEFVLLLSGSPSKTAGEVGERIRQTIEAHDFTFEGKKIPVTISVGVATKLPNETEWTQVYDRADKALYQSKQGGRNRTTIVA
Kind of assay: X-ray crystal structure, […] Å, co-purified ligand. In kind it is binding. Conditions: I-site (RxxD: R218, D221) of both monomers; two c-di-GMP per dimer; product, feedback inhibitor.

Assay [1] has as its target T2, GGDEF-only construct of DgcB (Bdellovibrio bacteriovorus, UniProt Q6MPU8).
T2 construct: gene Bd0742; GGDEF domain only, aa 148-310 (own numbering), C-terminal thrombin-cleavable 8xHis tag, E. coli BL21 lambda DE3
T2 sequence (Q6MPU8 158-320): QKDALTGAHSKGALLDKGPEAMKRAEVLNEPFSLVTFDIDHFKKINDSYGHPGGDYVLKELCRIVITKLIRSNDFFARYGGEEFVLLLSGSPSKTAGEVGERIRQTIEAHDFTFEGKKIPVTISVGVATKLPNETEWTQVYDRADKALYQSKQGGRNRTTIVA
In words: co-purification of c-di-GMP with the protein. The format is binding. Conditions: I-site.

For assay [2], the target named is DgcB S15C-S73C-R218A (disulphide-stapled double cysteine mutant), full length (Bdellovibrio bacteriovorus HD100). Kind of assay: SEC; non-reducing gel-filtration (buffer without DTT) after overnight incubation with 5 mM oxidised glutathione, sample at 50 mg/ml; sizes calibrated to known standards. (Size exclusion chromatography separates by hydrodynamic size, large species first.)

Consider `Nc1nc2c(ncn2[C@@H]2O[C@@H]3COP(=O)(O)O[C@H]4[C@@H](O)[C@H](n5cnc6c(=O)[nH]c(N)nc65)O[C@@H]4COP(=O)(O)O[C@H]3[C@H]2O)c(=O)[nH]1` [c-di-GMP], for which the “X-ray crystal structure, 1.79 Å, co-purified ligand” value at DgcB (full-length) was “The dimer is stabilized by two molecules of c-di-GMP (classically intercalating via their planar bases)”. For the same molecule, in assay [1], the “co-purification of c-di-GMP with the protein” value was “the GGDEF-only construct purifies with a small amount of c-di-GMP at the I-site”.

In general, stoichiometry N refers to a count of units in the complex or per binding partner. For the molecule “DgcB S15C-S73C-R218A (disulphide-stapled double cysteine mutant), full length (enzyme)”, in assay [2], the stoichiometry N was 4 and 2.
